According to paper PMC9962283, “The Plant Derived 3-3′-Diindolylmethane (DIM) Behaves as CB2 Receptor Agonist in Prostate Cancer Cellular Models” (International Journal of Molecular Sciences, 2023):
Entries after “also recorded” stand apart in the source; their conditions may differ.

Tests used:
[1] = system: cannabinoid CB1 or CB2 receptors (PC3 cell membranes); assay: [35S]GTPγS binding in PC3 cell membranes; assay type: biochemical, human; settings: for EC50: agonist alone, read-out: EC50, stimulation of [35S]GTPγS binding
Method: (§1) Binding assays with [^35S]GTPγS were performed with PC3 or LNCaP cell membranes. Both PC3 and LNCaP cells were removed from flasks by scraping and then frozen as a pellet at −20 °C until required. Before use in a radioligand-binding assay, cells were defrosted, diluted in Tris buffer (50 mM Tris–HCl, 50 mM Tris-Base) and homogenized. Protein assays were performed using a Bio-Rad Dc kit (Bio-Rad©, Watford, UK).
(§2) The measurement of ligand-stimulated [^35S]GTPγS binding to cannabinoid CB1 or CB2 receptors was adapted from methods described previously. The assays were carried out with GTPγS-binding buffer (50 mM Tris–HCl, 50 mM Tris-Base, 5 mM MgCl2, 1 mM ethylenediaminetetraacetic acid, 100 mM NaCl, 1 mM dithiothreitol and 0.1% bovine serum albumin) in the presence of [^35S]GTPγS and GDP, in a final volume of 500 μL. Binding was initiated by the addition of [^35S]GTPγS to the wells. Non-specific binding was measured in the presence of 30 μM GTPγS. The drugs were incubated in the assay for 60 min at 30 °C. The reaction was terminated by a rapid vacuum filtration method using Tris-binding buffer, as described previously, and the radioactivity was quantified by liquid scintillation spectrometry. In all the [^35S]GTPγS-binding assays, we used 0.1 nM [^35S]GTPγS, 30 μM GDP and a protein concentration of 40 μg per well for PC3 and LNCaP cell membranes. Compounds were stored at −20 °C in DMSO.
Paired Student’s t-test or one-way ANOVA analysis of variance (with Tukey’s post hoc analysis) was used where appropriate for cell viability and western blotting data. A value of p < 0.05 was taken as being significant.

[2] = system: cannabinoid CB1 or CB2 receptors (LNCaP cell membranes); assay: [35S]GTPγS binding in LNCaP cell membranes; assay type: biochemical, human; settings: agonist alone, read-out: EC50, stimulation of [35S]GTPγS binding
Method: as §1
as §2, with “DMSO. […]” for “DMSO.”

[3] = system: FSK-induced cAMP production in PC3 cells; assay: Cyclic AMP assay (HitHunter), FSK-induced cAMP production in PC3 cells; assay type: cell-based, human; settings: for Imax, inhibition of FSK-induced cAMP production / pIC50, inhibition of FSK-induced cAMP production / IC50: agonist alone; for IC50: read-out: IC50, inhibition of FSK-induced cAMP production
Method: The assays were performed using the HitHunter® cAMP assay kit (Eurofins DiscoverX Products, Celle-L’Evescault, France) according to the vendor’s protocol and previous studies. Briefly, cells were detached using cell dissociation buffer, counted and seeded at 2 × 10^4 cells per well in […] of complete medium onto white 96-well plates and incubated at 37 °C and 5% CO2 for approximately 24 h before running the experiment. The assays and the drug dilutions were performed in a 1:1 mixture of DMEM and Ham’s F12 medium without phenol red, containing […] of rolipram and forskolin (FSK; 7b-acetoxy-8,13-epoxy-1a,6b,9 atrihydroxylabd-14-en-11-one). Before running the assay, the medium was discarded, and cells were washed with D-MEM/F-12 medium. Then, cells were treated with the assigned drugs (30 μL per well) and incubated for 30 min at 37 °C and 5% CO2. Finally, cAMP standards and the appropriate mixture of kit components were added (as described by the manufacturer, Eurofins DiscoverX Products, Celle-L’Evescault, France). Plates were incubated overnight at room temperature in the dark. Chemiluminescent signals were detected on a Synergy HT Multi-Mode Microplate Reader (ThermoFisher Scientific, Loughborough, UK).
(§3) Values for half of the maximal effective concentration required to elicit a response (EC50), or for the half maximal inhibitory concentration (IC50) required to inhibit a response, as well as for maximal effect (Emax), standard error of the mean (S.E.M.) and 95% confidence limits of EC50 and IC50, have been calculated by nonlinear regression analysis using the equation for a sigmoid concentration–response curve (GraphPad Prism v5.0, San Diego, CA, USA). Paired Student’s t-test or one-way ANOVA analysis of variance (with Tukey’s post hoc analysis) was used where appropriate for cell viability and western blotting data. A value of p < 0.05 was taken as being significant.

[4] = system: PC3 cells; assay: Cell viability (MTT) assay in PC3 cells; assay type: cell-based, human; settings: 24 h, DIM alone
Method: (§4) Human prostate cancer cell lines, LNCaP and PC3, were obtained from the European Collection of Animal Cell Cultures. These were cultured in RPMI 1640 medium (Merck Life Science Ltd., Gillingham, UK) containing 10% (vol:vol) fetal bovine serum and 1% (vol:vol) Penicillin–Streptomycin Solution (10,000 U/mL penicillin and 10 mg/mL streptomycin in 0.9% sodium chloride (Merck Life Science Ltd., Gillingham, UK).
(§5) A standard 3-(4,-5-dimethylthiazol-2-yl)-2,-5-diphenyl tetrazolium bromide (MTT) dye reduction assay was used to assess compounds. Briefly, cells were plated in a flat-bottomed 96-well plate at seeding densities of 6 × 10^3 cells per well for LNCaP cells and 5 × 10^3 cells per well for PC3 cells. Cells were treated the following day with the appropriate agents for 24 h. Following the incubation period, the MTT solution (5 mg/mL in phosphate-buffered saline) was added and incubated for 4 h. The contents of the wells were removed and replaced with 200 μL DMSO to dissolve the MTT formazan crystals. The plates were immediately read at 570 nm in a multi-well plate reader (DynaTech MR5000; Dynex Technologies Ltd., Chantilly, VA, USA).
as §3

[5] = system: LNCaP cells; assay: Cell viability (MTT) assay in LNCaP cells; assay type: cell-based, human; settings: 24 h, DIM alone
Method: as §4, §5, §3

[6] = system: phosphor-AKT (Ser473); assay: Western blot of phospho-AKT (Ser473) levels in PC3 cells; assay type: cell-based, human
Method: (§6) Cells were homogenized in lysis buffer [20 mM Tris, 0.25 M sucrose, 10 mM ethyleneglycol-bis(aminoethylether)-tetraacetic acid, 2 mM ethylenediaminetetraacetic acid, 1 mM sodium orthovanadate, 25 mM sodium β-glycerophosphate and 50 mM sodium fluoride; pH 7.5]. Prior to use, 0.1% (vol:vol), protease Inhibitor Cocktail (Merck Life Science Ltd, Gillingham, UK) was added. A total of 20 μg of protein was electrophoresed through a precast 16% polyacrylamide gel (Thermo Fisher, Oxford, UK) for 2 h and the separated proteins were transferred to nitrocellulose membranes (Bio-Rad, UK), then blocked with 5% (wt:vol) skimmed milk in Tris-buffered saline with 0.1% (vol:vol) Tween 20 (TBST solution) at room temperature and incubated with 1:200 dilution of anti-pAKT (Ser473) antibody (Merck Life Science Limited, Watford, Hertfordshire UK) or 1:200 cleaved-CASP-3 antibody (Insight Biotechnology, UK) at 4 °C overnight. β-Actin (1:20,000) was used as an internal loading control to normalize between lanes during densitometry. The appropriate secondary antibody for pAKT (anti-mouse), cleaved-CASP-3 (anti-mouse) was used at a concentration of 1:5000 (Insight Biotechnology Ltd, Wembley, Middlesex, UK) and incubated at room temperature for 1 h. […]

[7] = system: cleaved caspase 3 (CASP-3); assay: Western blot of cleaved caspase 3 levels in PC3 cells; assay type: cell-based, human
Method: as §6

[8] = system: CB1 receptors; design: method as in PMID 19286662; settings: hCB1/CB2-CHO transfected cells; cited from earlier work
[9] = system: CB2 receptors; design: method as in PMID 19286662; settings: hCB1/CB2-CHO transfected cells, β-arrestin assay; cited from earlier work

SMILES | EC50 [1] [nM] | EC50 [2] [nM] | Imax, inhibition of FSK-induced cAMP production [3] | pIC50, inhibition of FSK-induced cAMP production [3] | IC50 [3] [nM] | Agonist behaviour in [35S]GTPγS binding [1] | IC50 [4] [nM] | Imax, cell viability [4] | pIC50, cell viability [4] | IC50 [5] [nM] | Imax, cell viability [5] | pIC50, cell viability [5] | pAKT level ([6]; DIM 50 nM) | pAKT level ([6]; DIM 50 µM) | Cleaved CASP-3 level ([7]; DIM 50 nM) | Cleaved CASP-3 level ([7]; DIM 50 µM) | Functional behaviour on CB1 receptors [8] | Functional behaviour on CB2 receptors [9] | Effect of CB1 antagonist on DIM's inhibition of FSK-induced cAMP production [3]
CCCCCCC(C)(C)c1ccc([C@@H]2C[C@H](O)CC[C@H]2CCCO)c(O)c1 [CP 55,940] | 6.14 | 2.56 | 9.74 | 8.314 | 4.85 | – | – | – | – | – | – | – | – | – | – | – | – | – | –
c1ccc2c(Cc3c[nH]c4ccccc34)c[nH]c2c1 [DIM, 3-3′-Diindolylmethane] | 9.28 | 32.1 | 17.36 | 7.870 | 13.5 | full agonist behavior | 38900 | 8.50 | 4.410 | 85000 | -16.63 | 4.071 | no significant reduction | strong and significant reduction | significant increase | significant increase | slight inverse agonist | partially activate; also recorded: partial agonist | –
Cc1c(C(=O)NN2CCCCC2)nn(-c2ccc(Cl)cc2Cl)c1-c1ccc(Cl)cc1 [SR1] | – | – | – | – | – | – | – | – | – | – | – | – | – | – | – | – | – | – | no effect
